# Results taken from US20240016777A1, “COMPOUNDS AND METHODS FOR TREATING VIRAL INFECTIONS” (priority 2020, published 2024).
# Molecular target: SARS-CoV-2 M^pro (Severe acute respiratory syndrome coronavirus 2 (2019-nCoV) (SARS-CoV-2), UniProt P0DTD1)
# Assay: biochemical
# Details: not given
row,SMILES,Mpro inhibitory activity (comparison in words)
1,COc1cc(O)c2c(=O)cc(-c3ccc(OC)c(-c4c(O)cc(O)c5c(=O)cc(-c6ccc(O)cc6)oc45)c3)oc2c1 [Ginkgetin],comparable to amentoflavone

# Same assay, conditions: compound at 17 μM, duplicates, 20 min pre-incubation
row,SMILES,Activity (% enzyme activity by fluorescence relative to initial enzyme activity)
1,C[C@@H]1O[C@@H](OC[C@H]2O[C@@H](Oc3c(-c4ccc(O)cc4)oc4cc(O)cc(O)c4c3=O)[C@H](O)[C@@H](O)[C@H]2O)[C@H](O)[C@H](O)[C@H]1O [Biorobin],+++ (<10% enzyme activity as indicated by fluorescence measurements)

# Same assay, conditions: compound at 17 μM, duplicates, 20 min pre-incubation; read-out: Activity (% enzyme activity by fluorescence relative to initial enzyme activity)
row,SMILES,remaining activity at 17 µM
1,CC(C)=CCc1c(O)ccc(-c2coc3cc(O)cc(O)c3c2=O)c1O [Licoisoflavone A],> 80%
2,C=C(C)[C@H](CC=C(C)C)Cc1c(O)cc(O)c2c(=O)c(O)c(-c3ccc(O)cc3O)oc12 [Kushenol C],10 to 80%
3,CC(C)=CCc1c2c(c3occ(-c4ccc(O)cc4)c(=O)c3c1O)C=CC(C)(C)O2 [Osajin],> 80%
4,CC(C)=CCCC1=C[C@@H](c2c(O)cc3oc(-c4ccc(O)cc4O)cc(=O)c3c2O)[C@H](C(=O)c2ccc(O)cc2O)[C@@H](c2ccc(O)cc2O)C1 [Multicaulisin],< 10%
5,COc1cc(O)c2c(c1CC=C(C)C)O[C@H](c1cc(CC=C(C)C)c(O)cc1O)CC2=O [Maackiaflavanone],< 10%

# Same assay, conditions: compounds evaluated at 0.015-300 μM; read-out: IC50
row,SMILES,IC50
1,C[C@@H]1O[C@@H](OC[C@H]2O[C@@H](Oc3c(-c4ccc(O)cc4)oc4cc(O)cc(O)c4c3=O)[C@H](O)[C@@H](O)[C@H]2O)[C@H](O)[C@H](O)[C@H]1O [Biorobin],7 µM
2,CC(C)=CCCC1=C[C@@H](c2c(O)cc3oc(-c4ccc(O)cc4O)cc(=O)c3c2O)[C@H](C(=O)c2ccc(O)cc2O)[C@@H](c2ccc(O)cc2O)C1 [Multicaulisin],17 µM
3,COc1cc(O)c2c(c1CC=C(C)C)O[C@H](c1cc(CC=C(C)C)c(O)cc1O)CC2=O [Maackiaflavanone],3 µM

# Same assay, conditions: read-out: Activity (% enzyme activity by fluorescence relative to initial enzyme activity), compound at 17 μM, duplicates, 20 min pre-incubation
row,SMILES,remaining activity at 17 µM
1,COc1cc(-c2oc3cc(O)cc(O)c3c(=O)c2OC)cc(CC=C(C)C)c1O [Dodoviscin J],> 80%
2,CC(C)=CCc1cc(-c2coc3cc(O)c(CC=C(C)C)c(O)c3c2=O)ccc1O [Lupalbigenin],> 80%
3,COc1c(-c2cc(CC=C(C)C)c(O)c(CCC(C)CO)c2)oc2cc(O)cc(O)c2c1=O (centres unmarked) [Dodoviscin H],> 80%
4,COc1ccc(-c2coc3c(CC=C(C)C)c(O)cc(O)c3c2=O)cc1 [Gancaonin M],> 80%
5,CC(C)=CCCC1(C)C=Cc2c(O)ccc(-c3oc4cc(O)cc(O)c4c(=O)c3CC=C(C)C)c2O1 (centres unmarked) [Sanggenone K],> 80%
6,CC(C)=CC[C@]12Oc3cc(O)c([C@@H]4C=C(C)C[C@H](c5ccc(O)cc5O)[C@H]4C(=O)c4cc(O)cc(O)c4)c(O)c3C(=O)[C@@]1(O)Oc1cc(O)ccc12 [Sanggenone D],< 10%
7,"CC(C)=CCc1c(O)c(CC=C(C)C)c2occ(-c3ccc(O)cc3)c(=O)c2c1O [6,8-Diprenylgenistein]",10 to 80%
8,COc1ccc(-c2oc3c(CC=C(C)C)c(O[C@@H]4O[C@H](CO)[C@@H](O)[C@H](O)[C@H]4O)cc(O)c3c(=O)c2O[C@@H]2O[C@@H](C)[C@H](OC(C)=O)[C@@H](O)[C@H]2O[C@@H]2O[C@H](COC(C)=O)[C@@H](O)[C@H](OC(C)=O)[C@H]2O)cc1 [Epimedin K],> 80%
9,COc1c(-c2cc(O)c(O)c(CC=C(C)C)c2)oc2cc(O)cc(O)c2c1=O [Uralenol-3-methylether],> 80%
10,COc1ccc(-c2oc3c(CC=C(C)C)c(O[C@@H]4O[C@H](CO)[C@@H](O)[C@H](O)[C@H]4O)cc(O)c3c(=O)c2O[C@@H]2O[C@@H](C)[C@H](O)[C@@H](O)[C@H]2O[C@@H]2O[C@@H](C)[C@H](O)[C@@H](O)[C@H]2O)cc1 [Epimedin C],10 to 80%
11,CC(C)=CCC/C(C)=C/Cc1cc(-c2coc3cc(O)ccc3c2=O)ccc1O [Corylifol A],> 80%
12,CC(C)=CCc1c(O)c(CC=C(C)C)c2c(c1O)C(=O)[C@H](O)[C@@H](c1ccc(O)cc1O)O2 [Kushenol L],> 80%
13,COc1cc(O)c(-c2coc3cc(O)ccc3c2=O)c(OC)c1CC=C(C)C [Licoricone],> 80%
14,COc1ccc(-c2oc3c(CC=C(C)C)c(O)cc(O)c3c(=O)c2O[C@@H]2O[C@@H](C)[C@H](O[C@@H]3O[C@H](CO)[C@@H](O)[C@H](O)[C@H]3O)[C@@H](O)[C@H]2O)cc1 [Baohuoside VII],10 to 80%
15,CC(C)=CCc1c(O)cc2occ(-c3ccc(O)cc3O)c(=O)c2c1O [Luteone],> 80%
16,CC(C)=CCc1cc([C@@H]2CC(=O)c3c(O)cc(O)cc3O2)cc(CC=C(C)C)c1O [abyssinone V],> 80%
17,COc1ccc(-c2oc3c(CC=C(C)C)c(O[C@@H]4O[C@H](CO)[C@@H](O)[C@H](O)[C@H]4O)cc(O)c3c(=O)c2O[C@@H]2O[C@@H](C)[C@H](O[C@@H]3OC[C@@H](O)[C@H](O)[C@H]3O)[C@@H](O)[C@H]2O)cc1 [Epimedin B1],10 to 80%
18,CC(C)=CC1Oc2cc(O)ccc2-c2oc3cc(O)cc(O)c3c(=O)c21 (centres unmarked) [Cyclocommunol],> 80%
19,C=C(C)C(O)Cc1cc(-c2coc3cc(O)c(CC=C(C)C)c(O)c3c2=O)ccc1O (centres unmarked) [Derrisisoflavone B],> 80%
20,CC(C)=CCc1c(O)c(CC=C(C)C)c2c(c1O)C(=O)C[C@@H](c1ccc(O)cc1O)O2 [Kushenol E],10 to 80%
21,"CC(C)=CCc1c(O)cc(O)c2c(=O)c(-c3ccc(O)cc3O)coc12 [2,3-dehydrokievitone]",10 to 80%
22,"CC(C)=CCc1c(O)ccc([C@H]2COc3c(CC=C(C)C)c(O)cc(O)c3C2=O)c1O (stereo in doubt) [5,7,2′,4′-Tetrahydroxy-8,3′-di(gamma,gamma-dimethylallyl)-isoflavanone]",10 to 80%
23,CC(C)=CCc1cc(-c2coc3cc(O)cc(O)c3c2=O)ccc1O [Isowighteone],> 80%
24,CC(C)=CCc1cc([C@@H]2CC(=O)c3c(O)cc(O)c(CC=C(C)C)c3O2)ccc1O [Euchrestaflavanone A],> 80%
25,CC(C)=CCc1cc([C@H]2Oc3cc(O)cc(O)c3C(=O)[C@@H]2O)cc(CC=C(C)C)c1O [Cathayanon H],> 80%

row,SMILES,remaining activity at 17 µM
1,C=C(C)[C@H](CC=C(C)C)Cc1c(O)c(CC=C(C)C)c(O)c2c1O[C@H](c1ccc(O)cc1O)[C@@H](O)C2=O [kushenol M],> 80%
2,CC(C)=CCc1cc(C2CC(=O)c3c(O)cc(O)cc3O2)c(CC=C(C)C)c(O)c1O (racemic) [(+/−)-Sigmoidin A],10 to 80%
3,C=C(C)C(O)Cc1c(O)c(CC=C(C)C)c2occ(-c3ccc(O)c(O)c3)c(=O)c2c1O (centres unmarked) [millewanin G],> 80%
4,CC(C)=CCc1c(O)c(CC=C(C)C)c2oc3c(c(=O)c2c1O)C(C=C(C)C)Oc1cc(O)c(O)cc1-3 (centres unmarked) [Artoheterophyllin B],> 80%
5,COc1c(-c2ccc(O)c(O)c2)oc2cc(O)c(CC=C(C)C)c(O)c2c1=O [6-Prenylquercetin-3-methylether],> 80%
6,COc1cc2occ(-c3ccc(O)cc3)c(=O)c2c(O)c1CC=C(C)C [Gancaonin G],> 80%
7,CC(C)=CCc1c2c(c(O)c3c(=O)c(-c4ccc(O)cc4)coc13)C=CC(C)(C)O2 [warangalone],10 to 80%
8,CC(C)=CCc1c(O)ccc2c(=O)c(-c3ccc(O)cc3)coc12 [8-Prenyldaidzein],> 80%
9,COc1ccc(-c2oc3c(CC=C(C)C)c(O)cc(O)c3c(=O)c2O[C@@H]2O[C@@H](C)[C@H](O)[C@@H](O)[C@H]2O[C@@H]2O[C@@H](C)[C@H](O)[C@@H](O)[C@H]2O)cc1 [2″-O-Rhamnosylicariside II],10 to 80%
10,CC(C)=CCc1cc2c(cc1O)O[C@H](c1ccc(O)cc1)CC2=O [Bavachin],> 80%
11,C=C(C)[C@H](CC=C(C)C)Cc1c(O)cc(O)c2c1O[C@H](c1ccc(O)cc1O)CC2=O [Kushenol F],> 80%
12,C=C(C)C(O)Cc1c(O)c(CC=C(C)C)c(O)c2c(=O)c(-c3ccc(O)cc3)coc12 (centres unmarked) [Erysenegalensein E],> 80%
13,CC(C)=CCC/C(C)=C/Cc1c(O)c(CC=C(C)C)cc(C2CC(=O)c3c(O)cc(O)cc3O2)c1O (centres unmarked) [Sanggenol P],> 80%
14,CC(C)=CCc1cc(-c2oc3cc(O)c(CC=C(C)C)c(O)c3c(=O)c2O)ccc1O [Glyasperin A],> 80%
15,CC(C)=CCC/C(C)=C/Cc1cc(C2CC(=O)c3c(O)cc(O)cc3O2)c(O)cc1O (centres unmarked) [kuwanon E],10 to 80%
16,COc1c(C2=Cc3ccc(O)cc3OC2)ccc(O)c1CC=C(C)C [Bidwillol A],> 80%
17,C=C(C)C(O)Cc1cc(-c2oc3cc(O)c(OC)c(O)c3c(=O)c2OC)cc(CCC(C)CO)c1O (centres unmarked) [Dodoviscin A],> 80%
18,CC(C)=CCc1cc(-c2oc3cc(O)cc(O)c3c(=O)c2O)cc(O)c1O [Uralenol],> 80%
19,CC(C)=CCc1c(O[C@@H]2O[C@H](CO)[C@@H](O)[C@H](O)[C@H]2O)cc(O)c2c(=O)c(O[C@@H]3O[C@@H](C)[C@H](O)[C@@H](O)[C@H]3O[C@@H]3O[C@@H](C)[C@H](O)[C@@H](O)[C@H]3O)c(-c3ccc(O)cc3)oc12 [Baohuoside V],10 to 80%
20,COc1ccc(-c2oc3c(CC=C(C)C)c(O[C@@H]4O[C@H](CO)[C@@H](O)[C@H](O)[C@H]4O)cc(O)c3c(=O)c2O)cc1 [Icariside I],> 80%
21,CC(C)=CCc1c(-c2ccc(O)cc2O)oc2c(CC=C(C)C)c(O)cc(O)c2c1=O [Mulberrin],> 80%
22,C=C(C)C(CC=C(C)C)Cc1c(O)cc(O)c2c1O[C@H](c1ccc(O)cc1O)[C@@H](O)C2=O (some centres unmarked) [Kushenol X],> 80%
23,COc1ccc(-c2oc3c(CC=C(C)C)c(O[C@@H]4O[C@H](CO)[C@@H](O)[C@H](O)[C@H]4O)cc(O)c3c(=O)c2O[C@@H]2O[C@@H](C)[C@H](OC(C)=O)[C@@H](O)[C@H]2O[C@@H]2O[C@H](CO)[C@@H](O)[C@H](OC(C)=O)[C@H]2O)cc1 [Caohuoside E],> 80%
24,COc1ccc(-c2oc3c(CC=C(C)C)c(O[C@@H]4O[C@H](CO)[C@@H](O)[C@H](O)[C@H]4O)cc(O)c3c(=O)c2O[C@@H]2O[C@@H](C)[C@H](O)[C@@H](O)[C@H]2O[C@@H]2OC[C@@H](O)[C@H](O)[C@H]2O)cc1 [Epimedin B],10 to 80%
